Laboratory results published in patent US6458746B1, “Plant growth regulating formulations” (BASF Aktiengesellschaft, priority 1998, dated 2002).

What was measured:
Assay type in all cases: in vivo
[1] = system: rice seedlings [cvs. “Koshihikari” (tall), “Tan-ginbozu” (dwarf), “Waito C” (dwarf)]; experiment: Shoot growth of rice seedlings, combinations with GA3; settings: 7 days after treatment, 1 kg/ha ammonium sulphate added; for Shoot growth Waito C [% of Control]: 100% = 8.7 cm; for Shoot growth Tan-ginbozu [% of Control]: 100% = 9.4 cm; for Shoot growth Koshihikari [% of Control]: 100% = 17.4 cm
Description: (§1) Unless otherwise noted, the growth regulating proerties of different compounds in different formulations were determined under greenhouse conditions as follows: […]
(§2) Test plants were grown in plastic pots of approximately 12.5 cm in diameter in a substrate provided with sufficient nutrients and water. At an appropriate shoot length the plants were treated with aqueous sprays of the formulations. The growth-regulating action observed was confirmed at the end of the experiment by measuring the height of the plants. The results obtained were compared with the growth height of the untreated plants.
The synergizing effect of compound VII on shoot elongation in rice is shown in the results of Example 7.
Enhanced shoot growth of rice seedlings [cvs. “Koshihikari” tall), “Tan-ginbozu” (dwarf), “Waito C” (dwarf)] 7 days after treatment with combinations of compound 6 with GA3^d

[2] = system: wheat; experiment: Greenhouse shoot length test, wheat; settings: for Shoot length reduction [activity, relative to control] in wheat: 1% formulations in cyclohexanone: Emulan EL = 4:1; for Shoot length Wheat [% of control]: 1% formulations in Atlas G 1086; for dosages of active ingredient needed to obtain results equivalent to compounds VI, VII, and IX: in wheat; as to Shoot length reduction [activity, relative to control] in wheat: key: 0: no effect; +: low activity; ++: intermediate activity; +++: high activity
Description: as §1, §2
(§3) Assays with wheat, barley, oat, and rye plants were carried out as described above. The aqueous spray solutions were prepared as follows: […]

[3] = system: barley; experiment: Greenhouse shoot length test, barley; settings: for Shoot length reduction [activity, relative to control] in barley: 1% formulations in cyclohexanone: Emulan EL = 4:1; for Shoot length Barley [% of control]: 1% formulations in Atlas G 1086
Description: as §1, §2, §3

[4] = system: oats; experiment: Greenhouse shoot length test, oats; settings: 1% formulations in cyclohexanone: Emulan EL = 4:1; also: key: 0: no effect; +: low activity; ++: intermediate activity; +++: high activity
Description: as §1, §2

[5] = system: rye; experiment: Greenhouse shoot length test, rye; settings: 1% formulations in cyclohexanone: Emulan EL = 4:1; also: key: 0: no effect; +: low activity; ++: intermediate activity; +++: high activity
Description: as §1, §2

[6] = system: rice; experiment: Greenhouse shoot length test, rice; settings: 1% formulations in cyclohexanone: Emulan EL = 4:1; also: key: 0: no effect; +: low activity; ++: intermediate activity; +++: high activity
Description: as §1, §2

[7] = system: small grains and rice (wheat, barley, oats, rye, rice); experiment: Shoot length reduction in small grains and rice (statements across species); settings: for shoot length reduction compared with compounds II to V: Examples 1 and 2; for activity-enhancing effects of ethoxylated castor oil R 15: barley and wheat, Example 5; for dosages needed to obtain results equivalent to compounds VI, VII, and IX: in these plant species, applied in commercial formulations; for activity in the other plant species compared with wheat: plant species other than wheat
Description: as §1, §2

[8] = system: spring barley (cv. “Alexis”); experiment: Shoot height reduction in spring barley, synergistic combinations; settings: 20 days after treatment
Description: as §1, §2
(§4) To show the synergistic effects of formulations in accordance with the instant invention together with further growth regulating agents, formulations in accordance with the invention were prepared and additional active ingredients added.
Shoot height reduction in spring barley (cv. “Alexis”) 20 days after treatment with combinations of standard compound S2 and compound VII
Shoot height reduction in spring barley (cv. “Alexis”) 20 days after treatment with combinations of standard compound S4 and compound VII

[9] = system: spring wheat (cv. “Ralle”); experiment: Shoot height reduction in spring wheat, synergistic combinations
Description: as §1, §2, §4
Shoot height reduction in spring wheat (cv. “Ralle”) 21 days after treatment with combinations of standard compound S4 and compound VII
Shoot height reduction in spring wheat (cv. “Ralle”) 13 days after treatment with combinations of standard compound S5 and compound VII

[10] = 250 g/ha ai, adjuvant R 15 500 g/ha
[11] = 750 g/ha ai, adjuvant R 15 500 g/ha

C=C1C[C@]23C[C@@]1(O)CC[C@H]2[C@@]12C=C[C@H](O)[C@@](C)(C(=O)O1)[C@H]2[C@@H]3C(=O)O (single isomer, unassigned; ent-3) [S6, ent-3α,10,13-trihydroxy-20-norgiberrell-1,16-diene-7,19-dioic acid 19,10-lactone, reference compound]
Shoot growth Waito C [% of Control] ([1]; S6 1.25 g/ha ai): 115 % of Control
Shoot growth Tan-ginbozu [% of Control] ([1]; S6 1.25 g/ha ai): 128 % of Control
Shoot growth Koshihikari [% of Control] ([1]; S6 1.25 g/ha ai): 109 % of Control
Shoot growth Waito C [% of Control] ([1]; S6 2.50 g/ha ai): 143 % of Control
Shoot growth Tan-ginbozu [% of Control] ([1]; S6 2.50 g/ha ai): 160 % of Control
Shoot growth Koshihikari [% of Control] ([1]; S6 2.50 g/ha ai): 112 % of Control
Shoot growth Waito C [% of Control] ([1]; S6 5.00 g/ha ai): 190 % of Control
Shoot growth Tan-ginbozu [% of Control] ([1]; S6 5.00 g/ha ai): 186 % of Control
Shoot growth Koshihikari [% of Control] ([1]; S6 5.00 g/ha ai): 124 % of Control

CC1CC23CC1(O)CCC2C12CC=CC(C)(C(=O)O1)C2C3C(=O)O (stereo not drawn) [Comp. II, exo-16,17-Dihydro-GA5]
Shoot length reduction [activity, relative to control] in wheat [2]: +
Shoot length reduction [activity, relative to control] in barley [3]: +
Shoot length reduction [activity, relative to control] in oats [4]: 0
Shoot length reduction [activity, relative to control] in rye [5]: ++

CCCO[C@]12CC[C@@H]3[C@](C[C@H]1C)(C2)[C@@H](C(=O)O)[C@H]1[C@@]32CC=C[C@]1(C)C(=O)O2 [Comp. IX, exo-16,17-Dihydro-GA5-13-n-propyl ether]
Shoot length reduction [activity, relative to control] in wheat [2]: ++
Shoot length reduction [activity, relative to control] in barley [3]: ++
Shoot length reduction [activity, relative to control] in oats [4]: ++
Shoot length reduction [activity, relative to control] in rye [5]: ++
Shoot length reduction [activity, relative to control] in rice [6]: ++
shoot length reduction compared with compounds II to V [7]: superior to compounds II to V

CC(=O)OC12CCC3C(CC1C)(C2)C(C(=O)O)C1C2(C)C=CCC13OC2=O (stereo not drawn) [Comp. VI, endo-16,17-Dihydro-GA5-13-acetate]
Shoot length reduction [activity, relative to control] in wheat [2]: +++
Shoot length Wheat [% of control] ([2]; 1.6 g/ha ai): 88 % of control
Shoot length Wheat [% of control] ([2]; 3.1 g/ha ai): 88 % of control
Shoot length Wheat [% of control] ([2]; 6.3 g/ha ai): 68 % of control
Shoot length Wheat [% of control] ([2]; 12.5 g/ha ai): 64 % of control
Shoot length reduction [activity, relative to control] in barley [3]: +++
Shoot length Barley [% of control] ([3]; 1.6 g/ha ai): 95 % of control
Shoot length Barley [% of control] ([3]; 3.1 g/ha ai): 84 % of control
Shoot length Barley [% of control] ([3]; 6.3 g/ha ai): 65 % of control
Shoot length Barley [% of control] ([3]; 12.5 g/ha ai): 53 % of control
Shoot length reduction [activity, relative to control] in oats [4]: ++
Shoot length reduction [activity, relative to control] in rye [5]: +++
Shoot length reduction [activity, relative to control] in rice [6]: +++
shoot length reduction compared with compounds II to V [7]: superior to compounds II to V

O=P(O)(O)CCCl [S1, ethephon, reference compound]
Shoot length [% of control] Wheat [2, 10]: 92 % of control
Shoot length [% of control] Wheat ([2]; 250 g/ha ai, no adjuvant): 93 % of control
Shoot length [% of control] Barley [3, 10]: 101 % of control
Shoot length [% of control] Barley ([3]; 250 g/ha ai, no adjuvant): 95 % of control
activity-enhancing effects of ethoxylated castor oil R 15 [7]: not or only at a far lower degree found
dosages needed to obtain results equivalent to compounds VI, VII, and IX [7]: approximately 20 times higher

C[N+](C)(C)CCCl [S2, chlormequat chloride, reference compound]
Shoot length [% of control] Wheat [2, 11]: 75 % of control
Shoot length [% of control] Wheat ([2]; 750 g/ha ai, no adjuvant): 83 % of control
dosages of active ingredient needed to obtain results equivalent to compounds VI, VII, and IX [2]: approximately 100 times higher
Shoot length [% of control] Barley [3, 11]: 94 % of control
Shoot length [% of control] Barley ([3]; 750 g/ha ai, no adjuvant): 94 % of control
activity-enhancing effects of ethoxylated castor oil R 15 [7]: not or only at a far lower degree found
activity in the other plant species compared with wheat [7]: significantly less active
% Shoot height reduction Actual ([8]; 750 g/ha a.i.): 11%
% Shoot height reduction Actual ([8]; 1500 g/ha a.i.): 10%

C[N+]1(C)CCCCC1 [S3, mepiquat chloride, reference compound]
dosages of active ingredient needed to obtain results equivalent to compounds VI, VII, and IX [2]: approximately 100 times higher
activity in the other plant species compared with wheat [7]: significantly less active

CCOC(=O)C1CC(=O)C(=C(O)C2CC2)C(=O)C1 (centres unmarked) [S5, trinexapac-ethyl, reference compound]
dosages needed to obtain results equivalent to compounds VI, VII, and IX [7]: approximately 20 times higher
% Shoot height reduction Actual ([9]; 30 g/ha a.i., 13 days after treatment): 14%

Dichloromethano-16,17-dihydro-GA5-13-acetate [Comp. V]
Shoot length reduction [activity, relative to control] in wheat [2]: 0
Shoot length Wheat [% of control] ([2]; 1.6 g/ha ai): 101 % of control
Shoot length Wheat [% of control] ([2]; 3.1 g/ha ai): 95 % of control
Shoot length Wheat [% of control] ([2]; 6.3 g/ha ai): 84 % of control
Shoot length Wheat [% of control] ([2]; 12.5 g/ha ai): 75 % of control
Shoot length reduction [activity, relative to control] in barley [3]: 0
Shoot length Barley [% of control] ([3]; 1.6 g/ha ai): 99 % of control
Shoot length Barley [% of control] ([3]; 3.1 g/ha ai): 97 % of control
Shoot length Barley [% of control] ([3]; 6.3 g/ha ai): 82 % of control
Shoot length Barley [% of control] ([3]; 12.5 g/ha ai): 76 % of control
Shoot length reduction [activity, relative to control] in oats [4]: +
Shoot length reduction [activity, relative to control] in rye [5]: +

endo-16,17-Dihydro-GA5 [Comp. III]
Shoot length reduction [activity, relative to control] in wheat [2]: ++
Shoot length reduction [activity, relative to control] in barley [3]: ++
Shoot length reduction [activity, relative to control] in oats [4]: 0
Shoot length reduction [activity, relative to control] in rye [5]: +++

prohexadione-Ca [S4, reference compound]
dosages needed to obtain results equivalent to compounds VI, VII, and IX [7]: approximately 20 times higher
% Shoot height reduction Actual ([9]; 30 g/ha a.i., 21 days after treatment): 6%
% Shoot height reduction Actual ([9]; 60 g/ha a.i., 21 days after treatment): 15%
